Converted amounts (≈) assume the structure as drawn. Like-named read-outs stand apart in the source and are kept apart here.
Columns and labels:
[1] = Hepatocyte stability, wistar hannover rat; type: in vitro ADME; settings: 0.5 million cells/ml; for CLint scaled at 2 μM: Wistar Hannover, rat, hepatocytes; for half-life at 2 μM: wistar hannover rat hepatocytes
Experimental: In this study, human, cynomolgus monkey, beagle dog, wistar hannover rat, and balb/c mouse hepatocyle stability was determined.

[2] = test system: phospho-ERK in A375 cells; assay: Cell-based pERK (pERK:tERK) in A375 cells; settings: A375 (BRAF p.V600E); 100 nM
Experimental: Materials and Methods: A549 or A375 cells were seeded in 6-well plates at an appropriate seeding density on day 0. On day 2 or 3, after checking the health and confluency of cells, the media was aspirated and replaced with 1 mL media containing a predetermined concentration of compound and incubated for 2 hours. After 2 hours, the media was aspirated, and the cells washed 2 times with cold PBS. Cells were lysed on ice, with 50 uL 1×CST lysis buffer +1 mM PMSF for 5 minutes. After 5 minutes, cells were removed using a scraper and transferred to cold 1.5 mL tubes, and centrifuged for 10 min, 4° C., 14,000×g. Supernatant was gently removed and snap frozen in liquid nitrogen. Protein concentration of the lysate was determined using Bradford Reagent (analyzed using SpectraMax M2E) and diluted to 1 mg/mL or pERK or 1.5 mg/mL for pMEK analysis. […] All dilutions were in Milk-free antibody diluent.
A549 or […] cells were treated in duplicate for two hours with compounds at varying concentrations. After two hours, the cells were lysed, snap frozen, and stored at −80° C. After storage, the lysate was quantified with the Bradford assay. Before the lysates were prepared to run on the Jess, the lysates were diluted to 1 mg/mL for pERK analysis and 1.5 mg/mL pMEK analysis using quantitative Western blotting. ERK and MEK phosphorylation levels were estimated by taking the ratio of phospho-protein to total protein and normalizing to the DMSO control.
The nine models are described in Table 16.

CYP2C8 = molecular target: T1, CYP2C8 (Homo sapiens, UniProt P10632); assay: in vitro; settings: microsomes, pH 7.4
T1 sequence (P10632 1-490): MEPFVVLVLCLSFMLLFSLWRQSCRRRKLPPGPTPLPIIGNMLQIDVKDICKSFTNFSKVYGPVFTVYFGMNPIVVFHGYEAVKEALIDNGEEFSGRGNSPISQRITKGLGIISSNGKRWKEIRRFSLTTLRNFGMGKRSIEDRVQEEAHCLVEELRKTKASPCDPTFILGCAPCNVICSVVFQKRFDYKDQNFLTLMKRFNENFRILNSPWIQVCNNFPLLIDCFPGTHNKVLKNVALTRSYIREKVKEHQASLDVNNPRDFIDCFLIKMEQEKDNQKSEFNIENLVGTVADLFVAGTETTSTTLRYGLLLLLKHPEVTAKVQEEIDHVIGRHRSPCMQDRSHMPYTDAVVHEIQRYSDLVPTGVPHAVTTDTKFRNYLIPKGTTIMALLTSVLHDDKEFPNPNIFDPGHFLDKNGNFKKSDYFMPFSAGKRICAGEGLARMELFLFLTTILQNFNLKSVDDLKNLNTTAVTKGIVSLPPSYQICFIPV

CYP2B6 = molecular target: T2, CYP2B6 (Homo sapiens, UniProt P20813); assay: in vitro; settings: microsomes, pH 7.4
T2 sequence (P20813 1-491): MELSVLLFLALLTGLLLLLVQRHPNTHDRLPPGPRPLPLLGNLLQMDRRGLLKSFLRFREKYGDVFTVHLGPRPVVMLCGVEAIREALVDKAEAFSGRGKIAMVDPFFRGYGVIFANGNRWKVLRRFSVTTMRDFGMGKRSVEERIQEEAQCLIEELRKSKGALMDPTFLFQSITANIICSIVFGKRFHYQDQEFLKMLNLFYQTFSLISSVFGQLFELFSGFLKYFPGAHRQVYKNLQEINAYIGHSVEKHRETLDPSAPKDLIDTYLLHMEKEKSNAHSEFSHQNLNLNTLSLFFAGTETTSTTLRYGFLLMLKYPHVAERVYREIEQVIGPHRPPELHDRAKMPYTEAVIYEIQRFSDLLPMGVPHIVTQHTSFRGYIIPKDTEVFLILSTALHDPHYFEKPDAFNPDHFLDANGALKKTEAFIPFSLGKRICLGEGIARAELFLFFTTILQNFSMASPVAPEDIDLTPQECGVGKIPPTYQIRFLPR

[3] = Mouse pharmacokinetics (oral cassette dosing), plasma; type: in vivo; settings: female, mouse, BALB/c immunocompetent mice, 5 mg/kg p.o.; for AUC(0-t): read-out: AUC0-t; for Cmax: read-out: Cmax; for Tmax: read-out: Tmax
Experimental: Female mice (BALC/c) received a single dose (3 mice/treatment) of vehicle (10% 1N HCl:90% [20% […]) and at 0.5, 1, 2, 4, 8, 12 and 24-hour post dose humanely euthanized.
Blood was obtained through cardiac puncture into K+EDTA tubes, mixed by inversion and centrifuged to obtain the plasma. Blood will be kept on ice or at approximately 4° C. prior. Centrifugation will take place within 30 minutes of blood collection affording plasma samples. Plasma samples will be frozen as soon as possible after centrifugation and stored at −80° C. until analysis. All samples will be analysed by means of LC-MS/MS. Method development for bioanalysis will be performed by pharmacokinetics Department of Crown Bioscience (Taicang) Inc. using LC-MS/MS analysis (using Waters HSS T3 2.1×50 mm (1.8 um) LC column, and an API-4000 Electrospray MS unit). The results of a kinetic solubility (free base) study are represented in Table 19.

[4] = Caco-2 bidirectional permeability (absorption & efflux); settings: human
CYP2C19 = CYP2C19 (Homo sapiens, UniProt P33261); assay: in vitro; settings: microsomes, pH 7.4
[5] = Kinetic solubility (PBS pH 7.4; 4 hr); type: physicochemical; settings: PBS buffer, pH 7.4, aqueous buffer, kinetic from dmso stock; free base (Table 19); read-out: Kinetic Solubility
In short: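 Compound shaken in PBS pH 7.4 for 4 h at room temperature, then centrifuged. Supernatant, diluted with DMSO, quantified by LC-UV peak area against DMSO calibration curves.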

[6] = read-out: CLint (L/hr/kg) (converted)

CYP2C19, sequence (P33261 whole entry): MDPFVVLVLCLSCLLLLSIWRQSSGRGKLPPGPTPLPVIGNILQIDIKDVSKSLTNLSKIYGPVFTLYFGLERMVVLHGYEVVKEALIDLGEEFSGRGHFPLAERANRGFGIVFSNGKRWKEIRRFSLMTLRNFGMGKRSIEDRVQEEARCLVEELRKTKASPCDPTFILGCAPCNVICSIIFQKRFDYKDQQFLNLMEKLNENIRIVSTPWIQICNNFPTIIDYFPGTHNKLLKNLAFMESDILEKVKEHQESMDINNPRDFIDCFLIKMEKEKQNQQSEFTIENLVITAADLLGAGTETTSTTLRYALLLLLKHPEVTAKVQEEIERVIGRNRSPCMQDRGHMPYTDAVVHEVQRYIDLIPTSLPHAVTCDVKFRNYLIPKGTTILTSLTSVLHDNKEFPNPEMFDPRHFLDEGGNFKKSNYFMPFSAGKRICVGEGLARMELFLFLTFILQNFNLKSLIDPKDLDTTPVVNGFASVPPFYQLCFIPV

SMILES: CNS(=O)(=O)Nc1cccc(Cc2c(CN(C)C)c3ccc(OC(=O)N(C)C)cc3oc2=O)c1Cl [Compound 274, 3-(2-chloro-3-((N-methylsulfamoyl)amino)benzyl)-4-((dimethylamino)methyl)-2-oxo-2H-chromen-7-yl dimethylcarbamate]
- CLint scaled at 2 μM [1, 6]: 2.84 L/h/kg
- CLint scaled at 2 μM ([1]; read-out: CLint (mL/min/kg)): 2.84 L/h/kg
- half-life at 2 μM [1]: 79 min
- pERK/tERK ratio normalized to DMSO [2]: 0.477
- inhibition at 30 min, 10 µM (CYP2C8): 11.9%
- inhibition at 30 min, 10 µM (CYP2B6): -0.6%
- AUC(0-inf) [3]: 396 ng·h/mL
- half-life [3]: 18 min
- AUC(0-t) [3]: 392 ng·h/mL
- Cmax [3]: 796 ng/mL
- Tmax [3]: 4.98 min
- Papp A→B at 2 h, 10 μM [4]: 16.8 ×10⁻⁶ cm/s
- Papp B→A at 2 h, 10 μM [4]: 8.95 ×10⁻⁶ cm/s
- efflux ratio at 2 h, 10 μM [4]: 0.533
- inhibition at 30 min, 10 µM (CYP2C19): 15.1%
- solubility kinetic at 4 h [5]: 78 µM (≈ 40.8 µg/mL)

SMILES: CCN(C)Cc1c(Cc2cccc(NS(=O)(=O)NC)c2Cl)c(=O)oc2cc(OC(=O)N(C)C)ccc12 [Compound 245, 3-(2-chloro-3-((N-methylsulfamoyl)amino)benzyl)-4-((ethyl(methyl)amino)methyl)-2-oxo-2H-chromen-7-yl dimethylcarbamate]
- CLint scaled at 2 μM [1, 6]: 5 L/h/kg
- CLint scaled at 2 μM ([1]; read-out: CLint (mL/min/kg)): 5 L/h/kg
- half-life at 2 μM [1]: 44.9 min
- inhibition at 30 min, 10 µM (CYP2C8): 30.4%
- inhibition at 30 min, 10 µM (CYP2B6): 6%
- AUC(0-t) [3]: 154 ng·h/mL
- Cmax [3]: 384 ng/mL
- Tmax [3]: 4.98 min
- Papp A→B at 2 h, 10 μM [4]: 11.9 ×10⁻⁶ cm/s
- Papp B→A at 2 h, 10 μM [4]: 6.87 ×10⁻⁶ cm/s
- efflux ratio at 2 h, 10 μM [4]: 0.578
- inhibition at 30 min, 10 µM (CYP2C19): 29%
- solubility kinetic at 4 h [5]: 28 µM (≈ 15 µg/mL)

From patent US20250179057A1, “MEK IMMUNE ONCOLOGY INHIBITORS AND THERAPEUTIC USES THEREOF” (Immuneering Corporation, priority 2022, published 2025)
